Source: US12577530B2, “Generation of a population of hindbrain cells and hindbrain-like organoids from pluripotent stem cells” (The Regents of the University of California, priority 2018, dated 2026)

How the values were obtained:
hPSCs = test: Monolayer hindbrain differentiation with varied pur or RA concentration, flow cytometry of CHX10 and LHX5; assay type: cell-based, human
Experimental: hPSCs were seeded in mTeSR supplemented with 10 μM ROCK inhibitor and dual SMAD inhibitors 0.2 μM LDN193189 and 10 μM SB431542 (StemGent, Cambridge, MA) at 5,000-100,000 cells/cm^2 onto 24-well plates coated with Matrigel. On day 3, medium was changed to m TeSR supplemented with dual SMAD inhibitors only. On day 5, the base medium was switched to neural induction medium (DMEM F: 12 (Corning, Corning, NY), N2 supplement (Life Technologies, Carlsbad, CA), L-Glutamine (VWR), 2 μg/ml heparin (Sigma Aldrich, St. Louis, MO), non-essential amino acids (Mediatech INC, Manassas, VA), penicillin-streptomycin (VWR) supplemented with fresh 0.4 ug/ml ascorbic acid (Sigma Aldrich) and 10 ng/ml brain derived neurotrophin factor (BDNF, R&D Systems, Minneapolis, MN)) supplemented with dual SMAD inhibitors and 10 nM-10 μM retinoic acid (Sigma Aldrich). On day 7, dual SMAD inhibition was ceased and 10 nM-10 μM retinoic acid, 10 nM-10 μM pur (EMD Millipore, Darmstast, Germany) and 1 μM N—[N-(3,5-difluorophenacetyl)-L-alanyl]-S-phenylglycine t-butyl ester (DAPT) were added to the neural induction medium. Medium was changed every 2-3 days throughout the differentiation, with fresh supplements added each time for up to 17 days.
At day 17 of differentiation, cells were completely dissociated as described in 3.3.3 and stained with the Transcription Factor Buffer Set, which includes a fixation/permeabilization (FP) and wash/permeabilization (WP) buffer (BD Biosciences, Franklin Lakes, NJ). Dissociated samples were first fixed for 45 minutes at 4° C. in the FP buffer followed by a 20-minute block with WP buffer containing 5% normal donkey serum (NDS, Jackson Laboratory, Bay Harbor, ME). Primary antibodies against CHX10, LHX5, PHOX2A, and PHOX2B (Table 1) and the proper matching species isotype control were added into WP buffer containing 2% NDS and incubated at 4° C. for 45 minutes. After two washes with WP buffer, secondary antibodies donkey anti-mouse IgG, ALEXA FLUOR™ 488 (a fluorescent compound; Life Technologies), at a dilution of 1:200, were added to WP buffer and incubated at 4° C. for 45 minutes. After two washes with WP buffer, samples were passed through a 35-μm filter before assessing with a BD ACCURI™ C6 (BD) cytometer (minimum 10,000 events). Cytometry analysis was performed using FlowJo V10 (Flowjo, Ashland, OR).

Human PSCs (organoids) [1] = test: Organoid diameter from phase contrast images; assay type: cell-based
Experimental: Human PSCs were seeded at 125 k cells/cm^2 in mTeSR supplemented with 10 μM ROCK inhibitor and 2 μM CHIR99102. For WNT treated cells, CHIR was supplemented into the media at each feed through day 7. 48 hours later, cell layers were dissociated using Accutase and counted. For organoid culture, 800 μm pyramidal PDMS inserts were placed into 24-well plates. 1 ml mTeSR containing 10 μM ROCK inhibitor was added to the wells containing the molds and the plate was centrifuged at 2,000×g for 3 minutes to get rid of any bubbles. Dissociated cells, either hPSCs or WNT pre-treated cells, were then added slowly into the wells at 10,000 cells per organoid in mTeSR supplemented with 10 μM ROCK inhibitor, 0.2 LDN193189, and 10 μM SB431542 ([…], Cambridge, MA). […] To change the media on the cells for the rest of the differentiation, the organoids were pipetted into a conical and allowed to settle. Old media was aspirated off and new media was used to resuspend the organoids and transfer them back to the 6 well. On day 3, medium was changed to mTeSR supplemented with dual SMAD inhibitors only. […] Phase contrast images of the organoids were taken using the EVOS® FL Imaging System. The size analysis performed in FIG. 12 was performed manually using Image J. The size analysis performed in FIG. 13 was done using a Python script to first segment the organoids using a watershed segmentation algorithm. […]

Human PSCs (organoids) [2] = test: 3D organoid hindbrain differentiation, flow cytometry of CHX10, LHX5, PHOX2A, PHOX2B at day 17; assay type: cell-based
Experimental: Human PSCs were seeded at 125 k cells/cm^2 in mTeSR supplemented with 10 μM ROCK inhibitor and 2 μM CHIR99102. For WNT treated cells, CHIR was supplemented into the media at each feed through day 7. 48 hours later, cell layers were dissociated using Accutase and counted. For organoid culture, 800 μm pyramidal PDMS inserts were placed into 24-well plates. 1 ml mTeSR containing 10 μM ROCK inhibitor was added to the wells containing the molds and the plate was centrifuged at 2,000×g for 3 minutes to get rid of any bubbles. Dissociated cells, either hPSCs or WNT pre-treated cells, were then added slowly into the wells at 10,000 cells per organoid in mTeSR supplemented with 10 μM ROCK inhibitor, 0.2 LDN193189, and 10 μM SB431542 ([…], Cambridge, MA). […] To change the media on the cells for the rest of the differentiation, the organoids were pipetted into a conical and allowed to settle. Old media was aspirated off and new media was used to resuspend the organoids and transfer them back to the 6 well. On day 3, medium was changed to mTeSR supplemented with dual SMAD inhibitors only. […] To dissociate organoid cultures, samples were collected and washed with 1 mL of PBS. The organoids were then transferred to 1 well of a 6-well plate with 2 ml of accutase and incubated on the rotary at 37° C. for 15 minutes. […] The dissociated cells were then transpired to a 15 mL conical and diluted with 3 times the volume of PBS.

organoids = test: Calcium imaging of maturing organoids (Ca^2+ fluctuations); assay type: cell-based, human; conditions: day 33 onward
Experimental: On day 17 of differentiation, organoids were switched to neural maturation medium (BRAINPHYS™ (neurophysiological basal medium) plus SM1 supplement (Stemcell Technologies (Bardy, van den Hurk et al. 2016)) supplemented with 10 ng/ml of BDNF, GDNF, CNTF, and IGF, R&D Systems). Medium was completely changed every 5 days for the remainder of the culture duration.
Endogenous GCaMP6 signal was used to detect calcium flux in differentiations performed with the WTC GCaMP6 cell line. Alternatively, cultures of cells that lacked GCaMP expression were washed with PBS and the medium was replaced with NEUROBASAL™ (neural cell culture medium) plus Fluo4 AM (5 μM, Life Technologies) for 1 hour at 37° C. The cultures were then washed with fresh Neurobasal and allowed to recover for an additional […] at 37° C. before recording on a Zeiss Axio Observer. To assess Ca^2+ fluctuations, cultures were imaged at a rate of 17 frames per second. To analyze the results, ROI were selected by hand using Zen software. For organoids, the outer edge of the tissue was selected and for monolayer cultures, individual neurons were selected. The relative fluorescent units (RFU) measured at the ROIs were processed using Python3. A detrend function with a robust linear regression was performed for normalization and a 4 Hz lowpass Butterworth filter was applied to minimize noise.

WTB and WTC hPSCs = test: WNT activation (CHIR 99021) during V2a interneuron differentiation, flow cytometry of CHX10; assay type: cell-based, human; conditions: 2 μM CHIR99021 pretreatment two days and first 7 days of protocol, compared to untreated (UT) controls
Experimental: To examine pretreatment effects of WNT, hiPSCs were plated onto a Matrigel-coated 24-well plate at 125,000 cells/cm^2 in mTeSR supplemented with 10 μM ROCK inhibitor and 2 μM CHIR99021. Two days later, the cell layers were dissociated with Accutase and the differentiation was performed as described above with the addition of 2 μM CHIR99021. The CHIR99021 treatment was continued until day 7.

[3] = pur 100 nM and RA 100 nM, day 17 (FIG. 12F)

SMILES: CC1=C(/C=C/C(C)=C/C=C/C(C)=C/C(=O)O)C(C)(C)CCC1 [RA, retinoic acid]
- RA concentration at which CHX10 percentage peaked (hPSCs; pur constant at 100 nM): 30 to 100 nM
- RA concentration at which LHX5 percentage peaked (hPSCs; pur constant at 100 nM): 10 nM

SMILES: c1ccc2c(Oc3nc(Nc4ccc(N5CCOCC5)cc4)c4ncn(C5CCCCC5)c4n3)cccc2c1 [pur, 9-Cyclohexyl-N-[4-(4-morpholinyl)phenyl]-2-(1-naphthalenyloxy)-9H-purin-6-amine]
- organoid diameter (Human PSCs (organoids) [1]; 10 nM and 100 nM pur groups, throughout the differentiation): ~500 μm
- organoid diameter (Human PSCs (organoids) [1]; 1 μM pur group, by day 17): approximately 700 μm
- LHX5 percentage (hPSCs; at 10 and 30 nM pur compared to 100 nM pur, RA kept at 100 nM, p<0.05): increased
- CHX10 percentage (hPSCs; at 30 and 100 nM pur, RA kept at 100 nM, p<0.05): greater
- percentages of V2a, V0 and chemosensing subtypes (Human PSCs (organoids) [2]; 10 nM pur, day 17 (FIG. 13D)): low percentages of all subtypes
- PHOX2A and PHOX2B percentages (Human PSCs (organoids) [2]; 100 nM and 1 μM pur condition versus 10 nM, day 17): highest
- percentage of CHX10 positive cells (Human PSCs (organoids) [2]; 100 nM pur, day 17 (FIG. 13D)): 3.5%
- percentage of LHX5 positive cells (Human PSCs (organoids) [2]; 100 nM pur, day 17 (FIG. 13D)): 36.5%
- percentage of CHX10 positive cells (Human PSCs (organoids) [2]; 1 μM pur, day 17 (FIG. 13D)): 23.3%
- percentage of LHX5 positive cells (Human PSCs (organoids) [2]; 1 μM pur, day 17 (FIG. 13D)): 3.1%
- percentage of CHX10^+ cells (Human PSCs (organoids) [2]; [3]): < 5%
- percentage of LHX5^+ cells (Human PSCs (organoids) [2]; [3]): ~80%
- percentage of PHOX2A^+ cells (Human PSCs (organoids) [2]; [3]): < 5%
- percentage of PHOX2B^+ cells (Human PSCs (organoids) [2]; [3]): < 5%
- periodic synchronous Ca^2+ fluctuations (organoids; organoids differentiated with 10 nM pur (V0^lowV2a^low)): few periodic synchronous events
- periodic synchronous Ca^2+ fluctuations (organoids; organoids differentiated with 100 nM pur (V0^highV2a^low)): more rhythmic overall
- periodic synchronous Ca^2+ fluctuations (organoids; organoids differentiated with 1 μM pur (V0^lowV2a^high)): more sporadic

SMILES: Cc1cnc(-c2cnc(NCCNc3ccc(C#N)cn3)nc2-c2ccc(Cl)cc2Cl)[nH]1 [CHIR 99021, 6-[[2-[[4-(2,4-Dichlorophenyl)-5-(5-methyl-1H-imidazol-2-yl)-2-pyrimidinyl]amino]ethyl]amino]-3-pyridinecarbonitrile]
- CHX10 percentage (WTB and WTC hPSCs): increased
